Measurements as given in patent publication US8722731B2, “Furanyl compounds and the use thereof” (NovoMedix, LLC, priority 2010, dated 2014).

System: Mia PaCa-2
Assay: IC50 cell-based assay, adherent cells, Mia PaCa-2
Conditions: Homo sapiens, Pancreas, carcinoma, 72 hours, read-out: IC50 of Compounds in Adherent Cell Types
Protocol: In one embodiment, the IC50s of the compounds provided herein were determined in cell-based assays using adherent cells. In one embodiment, the activity of the compounds provided herein were determined in a cell-based assay using the triple negative breast cancer cell line MDA-MB-468. In one embodiment, the adherent cells used in the cell-based assays may be a cell type selected from Table 1. In one embodiment, the cell-based assay may be carried out as provided herein. On day 0, cells were seeded at 20,000 cells per well in 100 µL of media into individual wells of a 96-well tissue culture plate. The next day, compounds were diluted to twice the desired final concentration and added in 100 µL of media for a final volume of 200 μL. Standard solutions for each compound were prepared at 1000× concentration in DMSO. The highest concentration was 30 mM. Serial 1:1 dilutions were made from there for a 6- or 9-point curve (e.g., 30 mM, 15 mM, 7.5 mM, etc). Compounds were then diluted 1:500 in media, and 100 µL of the resulting solution was added to each well for a final dilution of 1:1000. […] Cells were placed back in the incubator, and the absorbance at 490 nm was read after 2-3 hours. […] “Percent Viability” was determined by subtracting the average background value (media only) and expressed as a ratio to the average value obtained from cells treated with only DMSO.

An IC50 of less than 5 µM was found for `O=C(Nc1cc(C(F)(F)F)cc(C(F)(F)F)c1)c1cc(-c2ccccc2)oc1C(F)(F)F` [Compound 1, 5-Phenyl-2-trifluoromethyl-furan-3-carboxylic acid (3,5-bis-trifluoromethyl-phenyl)-amide] in this work.
